# Data reported in patent publication US9139574B2, “Tumor targeted drug combretastatin A4 derivative” (Nanjing Sanhome Pharmaceutical Co., Ltd., priority 2011, dated 2015).
# Columns and labels:
# [1] = tested on: K562; experiment: MTT assay of anti-tumor activity, K562; assay type: cell-based; conditions: K562 cells
# Description: (§1) The cells were digested and counted. The cell suspension was prepared in a concentration of 5×10^4 cells/ml. 100 μL of the cell suspension per well was added into 96-well plates (5×10^3 cells per well). The 96-well plates were placed in a 5% CO2 incubator at 37° C. for 24 hours. The drugs were diluted with the complete medium to the desired concentrations. 100 μL of the corresponding drug-containing medium was added into each well. Negative control group, vehicle control group and positive control group were set. The 96-well plates were placed in 5% CO2 incubator at 37° C. for 72 hours. The 96-well plates were subjected to a MTT assay, and measured OD value at λ=490 nm. The measurement procedure comprises adding 20 μL MTT (5 mg/ml) for each well, incubating for 4 hours in an incubator, discarding the medium, dissolving by adding 150 μL DMSO into each well, mixing uniformly by rocking gently for 10 minutes on a shaker, reading OD value of each well in a microplate reader at λ=490 nm. The inhibition rate was calculated, the results were recorded, and the anti-tumor activity was assessed.
# [2] = tested on: MCF-7; experiment: MTT assay of anti-tumor activity, MCF-7; assay type: cell-based
# Description: as §1
# [3] = tested on: HCT-116; experiment: MTT assay of anti-tumor activity, HCT-116; assay type: cell-based; conditions: HCT-116 cells
# Description: as §1
# [4] = tested on: NCI-H460; experiment: MTT assay of anti-tumor activity, NCI-H460; assay type: cell-based; conditions: NCI-H460 cells
# Description: as §1
# [5] = tested on: DU-145; experiment: MTT assay of anti-tumor activity, DU-145; assay type: cell-based; conditions: DU-145 cells
# Description: as §1
# [6] = tested on: tubulin; experiment: Inhibitory activity on tubulin polymerization (kit BK011P, Cytoskeleton); assay type: biochemical; conditions: 37° C., 60 minutes, fluorescence, Vmax
# Description: The compounds were formulated into six different concentrations (0.03, 0.3, 0.9, 3, 9, 30 μM). The tubulin polymerization assay kit (Cat. # BK011P, Cytoskeleton) was used for testing. The samples were incubated at 37° C. for 60 minutes, and then fluorescence was collected using Gemini EM Fluorescence Microplate Reader collected at 410-460 nm. Vmax was calculated using SOFTMAX® PRO microplate data acquisition & analysis software. The tubulin inhibition (IC50) of the compound was calculated using GRAPHPAD PRISM® v5.01 graphing and statistics software.
# [7] = Homo sapiens, MCF7, 72 h, MCF-7 cells
Structure (SMILES),"IC50 ([1]; Homo sapiens, K562, 72 h) [nM]","IC50 [2, 7] [nM]","IC50 ([3]; Homo sapiens, HCT-116, 72 h) [nM]","IC50 ([4]; Homo sapiens, NCI-H460, 72 h) [nM]","IC50 ([5]; Homo sapiens, DU-145, 72 h) [nM]",IC50 [6] [nM],melting point [°C],further results
"COc1cc(OC)cc(-c2ncoc2-c2ccc(OC)c(O)c2)c1 [Compound C110, 4-(3,5-dimethoxyphenyl)-5-(3-hydroxy-4-methoxyphenyl)oxazole]",49,210,71,33,2.5,470,149.9 to 151.6,–
"COc1cc(OC)cc(-c2ncoc2-c2ccc(OC)c(N)c2N)c1 [Compound C121, 4-(3,5-dimethoxyphenyl)-5-(2,3-diamino-4-methoxyphenyl)oxazole]",–,–,–,–,–,2350,132.6 to 134,–
"COc1cc(OC)cc(-c2ncoc2-c2ccc(OC)c(O)c2O)c1 [Compound C116, 4-(3,5-dimethoxyphenyl)-5-(2,3-dihydroxy-4-methoxyphenyl)oxazole]",–,–,–,–,–,530,178.6 to 180.4,–
"CNc1ccc(-c2ocnc2-c2cc(OC)cc(OC)c2)cc1O [Compound C123, 4-(3,5-dimethoxyphenyl)-5-(3-hydroxy-4-methylaminophenyl)oxazole]",7.2,1.2,> 300,–,> 300,660,149.9 to 151.6,IC50 ([3]; 72 hours): 189 nM
"COc1cc(-c2ncn(-c3cc(OC)c(OC)c(OC)c3)c2-c2ccc(N(C)C)cc2)cc(OC)c1OC [Compound C106, 5-(4-dimethylaminophenyl)-4-(3,4,5-trimethoxyphenyl)-1-(3,4,5-trimethoxyphenyl)imidazole]",3.2,7.3,136,> 300,92.3,–,168.8 to 170.9,–
"COc1cc(OC)cc(-c2nc[nH]c2-c2ccc(OC)c(O)c2)c1 [Compound C118, 4-(3,5-dimethoxyphenyl)-5-(3-hydroxy-4-methoxyphenyl)-imidazole]",2.8,46.3,40.5,14.3,–,490,–,–
"COc1cc(OC)cc(-c2ncoc2-c2ccc3c(c2)NC(=O)CO3)c1 [Compound C253, 4-(3,5-dimethoxyphenyl)-5-[6-(3-oxobenzomorpholiny)]oxazole]",–,–,–,–,–,–,–,"IC50 ([1]; 72 hours): 310 nM; IC50 ([2]; MCF-7 cells, 72 hours): 6.4 nM; IC50 ([3]; 72 hours): 121 nM; IC50 ([4]; 72 hours): 26.4 nM; IC50 ([5]; 72 hours): 76.2 nM"
"COc1ccc(/C=C\c2cc(OC)c(OC)c(OC)c2)cc1O [CA4, cis-1-(3,4,5-trimethoxyphenyl)-2-(3′-hydroxy-4′-methoxyphenyl)ethylene, reference compound]",5.2,5.5,43,5.6,7.2,[…],–,–
"COc1cc(OC)cc(-c2ncn(C)c2-c2scc3c2OCCO3)c1 [Compound C238, N-methyl-4-(3,5-dimethoxyphenyl)-5-[(3,4-ethylenedioxyl)thienyl]imidazole]",–,–,–,–,–,–,–,"IC50 ([1]; 72 hours): 11.2 nM; IC50 ([2]; MCF-7 cells, 72 hours): 6.1 nM; IC50 ([3]; 72 hours): 230 nM; IC50 ([4]; 72 hours): > 300 nM; IC50 ([5]; 72 hours): 150 nM"
"COc1cc(OC)cc(-c2ncoc2-c2ccc(OC)c(O)c2F)c1 [Compound C117, 4-(3,5-dimethoxyphenyl)-5-(2-fluoro-3-hydroxy-4-methoxyphenyl)oxazole]",8.5,88.9,> 300,10.2,130,–,168.1 to 172.4,–
"COc1cc(OC)cc(-c2ncoc2-c2ccc(OC)c(N)c2)c1 [Compound C115, 4-(3,5-dimethoxyphenyl)-5-(3-amino-4-methoxyphenyl)oxazole]",5.7,101,335,52,> 300,460,–,–
"COc1ccc(-c2c(-c3cc(OC)c(OC)c(OC)c3)ncn2-c2ccccc2)cc1O [Compound C087, 5-(3-hydroxy-4-methoxyphenyl)-4-(3,4,5-trimethoxyphenyl)-1-phenylimidazole]",–,–,–,–,–,–,176 to 177,"IC50 ([1]; Homo sapiens, 72 hours): 4.6 nM; IC50 ([2]; Homo sapiens, MCF7, MCF-7 cells, 72 hours): 6.2 nM; IC50 ([3]; Homo sapiens, 72 hours): 77 nM; IC50 ([4]; Homo sapiens, 72 hours): 153 nM; IC50 ([5]; Homo sapiens, 72 hours): > 300 nM"

# The next lines start with results.
"IC50 ([1]; Homo sapiens, K562, 72 h) [nM]","IC50 [2, 7] [nM]","IC50 ([3]; Homo sapiens, HCT-116, 72 h) [nM]","IC50 ([4]; Homo sapiens, NCI-H460, 72 h) [nM]","IC50 ([5]; Homo sapiens, DU-145, 72 h) [nM]",IC50 [6] [nM],melting point [°C],Structure (SMILES),further results
6.4,4.3,33,> 300,280,1040,–,"COc1cc(OC)cc(-c2ncoc2-c2ccc(OC)c(O)c2N)c1 [Compound C124, 4-(3,5-dimethoxyphenyl)-5-(2-amino-3-hydroxy-4-methoxyphenyl)oxazole]",–
7.6,–,460,> 300,10.3,1570,–,"COc1cc(OC)cc(-c2ncn(CCO)c2-c2ccc(OC)c(F)c2)c1 [Compound C256, N-hydroxyethyl-4-(3,5-dimethoxyphenyl)-5-(3-fluoro-4-methoxyphenyl)imidazole]",–
–,–,–,–,–,860,–,"CNc1ccc(-c2ocnc2-c2cc(OC)cc(OC)c2)cc1F [Compound C264, 4-(3,5-dimethoxyphenyl)-5-(3-fluoro-4-methylaminophenyl)oxazole]",–
7.6,8.9,> 300,89.3,123,–,–,"COc1cc(OC)cc(-c2nc[nH]c2-c2ccc(OC)c(O)c2N)c1 [Compound C147, 4-(3,5-dimethoxyphenyl)-5-(2-amino-3-hydroxy-4-methoxyphenyl)imidazole]",–
4.5,7.8,52,90.1,> 300,–,–,"COc1cc(OC)cc(-c2ncn(C)c2-c2ccc(OC(F)(F)F)c(N)c2)c1 [Compound C132, 4-(3,5-dimethoxyphenyl)-5-(3-amino-4-trifluoromethoxyphenyl)-1-methylimidazole]",–
6.9,5.6,68,76.3,161,–,99.2 to 101.3,"COc1cc(OC)cc(-c2ncn(C)c2-c2ccc(OC(F)F)c(N)c2)c1 [Compound C135, 4-(3,5-dimethoxyphenyl)-5-(3-amino-4-difluoromethoxyphenyl)-1-methylimidazole]",–
–,–,–,–,–,660,–,"COc1cc(OC)cc(-c2nc[nH]c2-c2ccc(OC)c(N)c2)c1 [Compound C129, 4-(3,5-dimethoxyphenyl)-5-(3-amino-4-methoxyphenyl)imidazole]",–
